This is an account of results in PMC12584836, “Rubus caesius leaves and stems in antiaging skin care products: antityrosinase, anticollagenase, antimicrobial activity, and transdermal distribution of main phenolic acids” (Pharmaceutical Biology, 2025).

Values after ≈ are worked out from the molar mass of the structure shown.

Test in all cases: Antibacterial broth microdilution
Common to all, as to format: cell-based

In one assay the test system is B. subtilis ATCC6633. The following applies: Bacillus subtilis, standard. How it is done:
(§1) Brain-heart infusion broth (BHI, Becton Dickinson) supplemented with 10% bovine serum was used for the cultivation of Streptococcus. […] Corynebacterium diphtheriae ZMF was cultured in Brain-heart infusion broth (BHI, Becton Dickinson) supplemented with 10% bovine serum under aerobic conditions at 37 °C for 72 h. Fungal strains-Candida albicans (ATCC10231), Candida albicans (ATCC26790), Candida [NT]200), Candida krusei (ATCC6258), Candida parapsilosis (ATCC22019) were grown in Sabourauda broth (SB, Becton Dickinson), under aerobic conditions at 37 °C for 72 h. For post-incubation viability assessment, BHI blood agar plates, MH agar plates, and Sabouraud agar plates were used. Active cultures were prepared by transferring cells from stock cultures into appropriate broth, as described above. […] Cultures were then diluted in the same broth to achieve an optical density corresponding to approximately 10^6 colony-forming units per milliliter (CFU/mL) for all bacteria strains except C. acnes and C. diphtheriae ZMF. […] [2014]). The minimum inhibitory concentration (MIC) was determined using the broth microdilution method in 96-well plates. Each well was filled with 100 μL of broth. […] These solutions were serially diluted and added to the first well of each row. Serial twofold dilutions were performed by transferring 100 μL from well to well up to the twelfth well, from which 100 μL was discarded. […] Ampicillin served as the reference standard, with concentrations ranging from 128 to 0.0625 μg/mL. Plates were incubated under the appropriate conditions at 37 °C for […] (Clostridium sp. was incubated anaerobically). MIC values were determined by visual observation and defined as the lowest extract concentration that prevented visible microbial growth. To determine the minimum bactericidal concentration (MBC), 100 μL from wells showing no visible growth were plated on agar media. […] The MBC was defined as the lowest concentration of extracts required to completely eliminate viable microorganisms (Hałasa et al. [2014]).

The test system of a further assay is C. acnes ATCC6919. The conditions noted are these: Cutibacterium acnes, standard. The method, then:
as §1

The test system of another assay is C. diphtheriae. The following applies: Corynebacterium diphtheriae, standard. The method, then: as §1
For the next assay, the system named is M. catarrhalis PCM2340. The conditions noted are these: Moraxella catarrhalis, standard. How it is done: as §1
The subject of another assay is S. epidermidis ATCC14990. The conditions noted are these: Staphylococcus epidermidis, standard. The method, then:
as §1

The next assay relates to S. equinus ATCC15351. The conditions noted are these: Streptococcus equinus, standard. The method, then:
as §1

For assay [1], the system named is Streptococcus β hemolytic group G. The conditions noted are these: S. β-hemolytic group G, standard. How it is done: as §1

With `CC1(C)S[C@@H]2[C@H](NC(=O)[C@H](N)c3ccccc3)C(=O)N2[C@H]1C(=O)O` [Ampicillin, ampicillin], the MIC against B. subtilis ATCC6633 was determined as 0.4 µg/mL (≈ 1.14 µM); with C. acnes ATCC6919, 32 µg/mL (≈ 91.6 µM); in the assay with C. diphtheriae, 16 µg/mL (≈ 45.8 µM); against M. catarrhalis PCM2340, 2.5 µg/mL (≈ 7.15 µM); against S. epidermidis ATCC14990, 0.3 µg/mL (≈ 0.859 µM); in the assay on S. equinus ATCC15351, 16 µg/mL (≈ 45.8 µM). Moreover, the MIC in assay [1] stood at 16 µg/mL (≈ 45.8 µM).
